The subject of data set [1] is mouse breast cancer cells (4T1). The data set can be described thus: Cytotoxicity to 4T1 cells. In kind it is cell-based. Particulars: incubated 48 h, different concentrations. The protocol: (§1) At the cellular level, the cytotoxicity of HDZ to cells is first tested. HDZ at different concentrations is incubated with mouse breast cancer cells (4T1), human breast cancer cells (MBA-MD-231), and vascular epithelial cells (HUVEC) for 48 h. […] Then, the cytotoxicity of D-NPs, C-NPs, H-NPs, and DOX with 4T1, MBA-MD-231, and HUVEC cells is subsequently tested. The experimental results are shown in FIG. 3B, FIG. 3C and FIG. 3D. […] This is because there is a polypeptide cRGD on the surface of C-NPs targeting the integrin αvβ3 overexpressed on the surface of 4T1 and MBA-MD-231 tumor cells, which can make more C-NPs enter the tumor cells and improve their cytotoxicity.

The subject of data set [2] is human breast cancer cells (MBA-MD-231). The data set can be described thus: Cytotoxicity to MBA-MD-231 cells. In kind it is cell-based. Particulars: incubated 48 h, different concentrations. The protocol: as §1
Data set [3] relates to vascular epithelial cells (HUVEC). The data set can be described thus: Cytotoxicity to HUVEC cells. In kind it is cell-based. Particulars: incubated 48 h, different concentrations. The protocol: as §1
The subject of the next data set is 4T1 tumor-bearing mice. Kind of data set: Biodistribution in 4T1 tumor-bearing mice (tissue grinding, fluorescence analysis). The class given is in vivo. Particulars: at 48 h versus 24 h. The protocol: In addition, in order to detect the difference in the distribution of free doxorubicin, D-NPs and H-NPs in tumors and other organs, 4T1 tumor-bearing mice are sacrificed at different time intervals after intravenous injection of different drugs, the organs of the mice are taken out for tissue grinding and extraction, and finally fluorescence analysis is performed. It can be seen that compared with free doxorubicin, D-NPs and H-NPs have higher enrichment rates in various organs and tumors of mice, which are about 1.52 and about 1.81 times (24 h) higher than free doxorubicin, respectively. […] From the above cytotoxicity and blood circulation experiments, it can be inferred that this is because compared with free doxorubicin, D-NPs and H-NPs have longer blood circulation capacity in the blood and are not easy to be cleared by cells.

For `NNc1nncc2ccccc12` [HDZ, hydralazine], the cytotoxicity entry in data set [1], in data set [2] and in data set [3] was “not very toxic” throughout.

Consider `COc1cccc2c1C(=O)c1c(O)c3c(c(O)c1C2=O)C[C@@](O)(C(=O)CO)C[C@@H]3O[C@H]1C[C@H](N)[C@H](O)[C@H](C)O1` [free doxorubicin, doxorubicin], for which the “change of enrichment in the tumor site with extension of time” value in the data set with 4T1 tumor-bearing mice is “decreases”.

The values above are taken from patent US11786525B1, “High-efficiency anti-tumor nano-drug delivery system containing hydralazine and preparation method thereof” (SHANGHAI INSTITUTE FOR ADVANCED STUDY ZHE JIANG UNIVERSITY, priority 2022, dated 2023).
